Reference: PubChem BioAssay AID1918949 (Molecular Pharmacology Branch, DTP, NCI, 2023)

Tested on: K24384-001-R-PDC complex spheroid viability
Assay: Anticancer human tumor K24384-001-R-PDC patient-derived pancreatic adenocarcinoma cell line growth inhibition
Details: for IC50: curve of first compound; for viability, T/C: stronger effect = lower value
From the text: Multicellular complex tumor spheroid response to LSD1 Inhibitor Iadademstat in combination with a variety of drugs and investigational agents in selected tumor cell lines
The current study was undertaken to assess response to LSD1 inhibitors in combination with standard-of-care drugs and investigational agents in solid tumor complex spheroid models as well as in the K-562 leukemia. Complex spheroids include a stromal component modeled by human endothelial cells (HUVEC) and fibroblasts modeled by human mesenchymal stem cells (MSCs). The concentration ranges selected for each drug and investigational agent were based upon clinically achievable concentrations if the clinical Cmax of the agent was known.
Compounds. The drugs and investigational agents used in this study are listed on Table 1. All of the agents used, including staurosporine (NSC755774) and gemcitabine (NSC613327), were obtained from the Developmental Therapeutics Program, NCI. FDA-approved anticancer drugs are available from the NCI at http://dtp.nci.nih.gov/branches/dscb/oncology_drugset_explanation.html. Drugs and investigational agents were >95% pure by proton nuclear magnetic resonance (NMR) and liquid chromatography/mass spectrometry (LC/MS). Stock solutions were prepared at 400x in DMSO, stored at -70 degrees C, and diluted in fresh medium prior to their use. The final concentration of DMSO in cell culture wells never exceeded 0.25% (v/v). The FDA-approved anticancer drug set is available from the Developmental Therapeutics Program at https://dtp.cancer.gov/organization/dscb/obtaining/available_plates.htm. All drugs and investigational agents were tested over a range starting from a high concentration at or near the clinical Cmax and decreasing in half-log increments. If the clinical Cmax for an agent had not been determined, the highest concentration tested was 10 microM.
Cell Lines. The patient-derived cancer cell (PDC) lines: 292921-168-R-J2-PDC, K24384-001-R-PDC, and 521955-158-R2-J5-PDC pancreatic carcinomas, 556581-035-R-J1 ovarian carcinoma, 324938-238-R-J1-PDC, 855422-203-R-J1-PDC and 883617-216-R-J1-PDC urothelial bladder carcinomas, 743489-274-T-PDC renal cell carcinoma, 138582-R-J1 Merkel cell tumor, K60290-347-R-J1 and K57222-313-R-J1-PDC glioblastomas, 653999-131-R-J2-PDC, LG0703-F948-PDC, and 349418-098-R-PDC non-small cell lung carcinomas, 885512-296-R-J2-PDC, 171881-019-R-J1-PDC breast carcinomas and 186277-243-T-J2-PDC and 233499-124-R-J2-PDC colon carcinomas were obtained from the NCI Patient-Derived Models Repository (PDMR, https://pdmr.cancer.gov). The established cell lines NCI/ADR-RES (RRID:CVCL_14520 and OVCAR-5 (RRID:CVCL_1628) ovarian carcinomas, 786-O (RRID:CVCL_1051) and A498 (RRID:CVCL_A498) renal cell carcinoma, NCI-H211 (ATCC, cat. CRL-5824; RRID:CVCL_1529), NCI-H196 (ATCC, cat. CRL-5823, RRID:CVCL_1509), SW 1271 (ATCC, cat. CRL-2177, RRID:CVCL_1716) and NCI-H1876 (ATCC, cat. CRL-5902, RRID:CVCL_1503) small cell lung carcinomas, MDA-MB-231 (RRID:CVCL_0062) and MDA-MB-468 (RRID:CVCL_0419)breast carcinomas (10-12). Pooled donor human umbilical vein endothelial cells (HUVEC, Lonza, cat. CC-2519) and human mesenchymal stem cells (hMSC, Lonza, cat. PT-2501) were purchased from Lonza (Walkersville, MD).
Cell Culture. All cells were maintained in an incubator at 37 degrees C and 5% CO2 with 95% humidity. The PDC lines were cultured according to standard operating procedures established by the NCI PDMR (https://pdmr.cancer.gov). Briefly all PDCs were thawed and cultured in Matrigel-coated flasks prepared with a working solution of 1X Ham's F-12 nutrient mix, without supplementation (Invitrogen, Waltham, MA, cat. 11765054), 100 U/mL penicillin-streptomycin (Invitrogen, cat. 15140122), and 2.5% Matrigel (Corning Inc., Corning, NY, cat. 354248) for the first three passages. […]

[1] = second compound 0.1 µM, first compound 0.0316 µM
[2] = second compound 0.1 µM, first compound 0.1 µM
[3] = second compound 0.316 µM, first compound 0.0316 µM
[4] = second compound 0.316 µM, first compound 0.1 µM
[5] = second compound 1 µM, first compound 0.0316 µM
[6] = second compound 1 µM, first compound 0.1 µM
[7] = second compound 3.16 µM, first compound 0.0316 µM
[8] = second compound 3.16 µM, first compound 0.1 µM
[9] = second compound 10 µM, first compound 0.0316 µM
[10] = second compound 10 µM, first compound 0.1 µM
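Also: spheroids exposed to agents for seven days before luminescence viability reading.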
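For viability, T/C in this document: 100% = DMSO vehicle control viability.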

With CC[C@@]1(O)C(=O)OCc2c1cc1n(c2=O)Cc2cc3c(CN(C)C)c(O)ccc3nc2-1 + NC1CC1c1ccc(-c2cccc(O)c2)cc1 the IC50 (second compound 0.1 µM) was 10.4 nM, the IC50 (second compound 0.316 µM) was 12.1 nM and the IC50 (second compound 1 µM) was 9.47 nM. For the same compound, the IC50 (second compound 3.16 µM) was 8.68 nM, the IC50 (second compound 10 µM) was 11.4 nM and the viability, T/C (second compound 0.1 µM, first compound 0.000316 µM) was 72.3%. The viability, T/C (second compound 0.1 µM, first compound 0.001 µM) was 81.5%, the viability, T/C (second compound 0.1 µM, first compound 0.00316 µM) was 79.9% and the viability, T/C (second compound 0.1 µM, first compound 0.01 µM) was 50.3%. It also gave a viability, T/C [1] of 43.7%, a viability, T/C [2] of 33.2% and a viability, T/C (second compound 0.316 µM, first compound 0.000316 µM) of 76.1%. The viability, T/C (second compound 0.316 µM, first compound 0.001 µM) was 90.1%, the viability, T/C (second compound 0.316 µM, first compound 0.00316 µM) was 62.9% and the viability, T/C (second compound 0.316 µM, first compound 0.01 µM) was 53.5%. For the same compound, the viability, T/C [3] was 43.7%, the viability, T/C [4] was 35.9% and the viability, T/C (second compound 1 µM, first compound 0.000316 µM) was 78.5%. The viability, T/C (second compound 1 µM, first compound 0.001 µM) was 89%, the viability, T/C (second compound 1 µM, first compound 0.00316 µM) was 73.3% and the viability, T/C (second compound 1 µM, first compound 0.01 µM) was 49.8%. The viability, T/C [5] was 33.5%, the viability, T/C [6] was 35.3% and the viability, T/C (second compound 3.16 µM, first compound 0.000316 µM) was 75.8%. For the same compound, the viability, T/C (second compound 3.16 µM, first compound 0.001 µM) was 79.2%, the viability, T/C (second compound 3.16 µM, first compound 0.00316 µM) was 77.6% and the viability, T/C (second compound 3.16 µM, first compound 0.01 µM) was 46.1%. It also gave a viability, T/C [7] of 42%, a viability, T/C [8] of 33.9% and a viability, T/C (second compound 10 µM, first compound 0.000316 µM) of 79%. It also gave a viability, T/C (second compound 10 µM, first compound 0.001 µM) of 81.7%, a viability, T/C (second compound 10 µM, first compound 0.00316 µM) of 84.4% and a viability, T/C (second compound 10 µM, first compound 0.01 µM) of 51.1%. For the same compound, the viability, T/C [9] was 40.9% and the viability, T/C [10] was 41.1%.
COc1ccc([C@@H](O)c2cc(-c3ncnc4cc(N5CCOCC5)ccc34)c(F)cc2Cl)nn1 + NC1CC1c1ccc(-c2cccc(O)c2)cc1 showed an IC50 (second compound 0.1 µM) of 1330 nM, an IC50 (second compound 0.316 µM) of 2000 nM and an IC50 (second compound 1 µM) of 1490 nM. For the same compound, the IC50 (second compound 3.16 µM) was 1440 nM, the IC50 (second compound 10 µM) was 1450 nM and the viability, T/C [1] was 97%. It also gave a viability, T/C [2] of 95.6%, a viability, T/C (second compound 0.1 µM, first compound 0.316 µM) of 87.2% and a viability, T/C (second compound 0.1 µM, first compound 1 µM) of 55.9%. It also gave a viability, T/C (second compound 0.1 µM, first compound 3.16 µM) of 29.6%, a viability, T/C (second compound 0.1 µM, first compound 10 µM) of 17.8% and a viability, T/C [3] of 112%. The viability, T/C [4] was 102%, the viability, T/C (second compound 0.316 µM, first compound 0.316 µM) was 91.1% and the viability, T/C (second compound 0.316 µM, first compound 1 µM) was 73.2%. The viability, T/C (second compound 0.316 µM, first compound 3.16 µM) was 34.3%, the viability, T/C (second compound 0.316 µM, first compound 10 µM) was 15.1% and the viability, T/C [5] was 117%. It also gave a viability, T/C [6] of 103%, a viability, T/C (second compound 1 µM, first compound 0.316 µM) of 95.2% and a viability, T/C (second compound 1 µM, first compound 1 µM) of 61.3%. It also gave a viability, T/C (second compound 1 µM, first compound 3.16 µM) of 28.1%, a viability, T/C (second compound 1 µM, first compound 10 µM) of 15.9% and a viability, T/C [7] of 105%. The viability, T/C [8] was 105%, the viability, T/C (second compound 3.16 µM, first compound 0.316 µM) was 79.7% and the viability, T/C (second compound 3.16 µM, first compound 1 µM) was 62.7%. It also gave a viability, T/C (second compound 3.16 µM, first compound 3.16 µM) of 28.6%, a viability, T/C (second compound 3.16 µM, first compound 10 µM) of 15.1% and a viability, T/C [9] of 124%. For the same compound, the viability, T/C [10] was 114%, the viability, T/C (second compound 10 µM, first compound 0.316 µM) was 96.6% and the viability, T/C (second compound 10 µM, first compound 1 µM) was 57%. The viability, T/C (second compound 10 µM, first compound 3.16 µM) was 32.2% and the viability, T/C (second compound 10 µM, first compound 10 µM) was 14.9%.
